Measurements reported in patent US7354567B2, “Method of encapsulating metal complex within liposomes” (Bio Med Core Incorporation, priority 2002, dated 2008).
One block for each compound: values may come before it.

Legend:
[1] = Partition coefficient of HMPAO and MRP20 (octanol/buffer, absorbance); format: physicochemical
Method: 4. Measurement of Partition Coefficient of HMPAO and MRP20
20 μl of HMPAO or MRP20 solutions adjusted to 8 mM with a physiology saline solution was added to 500 μl of octanol and 500 μl of a HEPES buffer solution (pH 7.0) or Na2HPO4—NaOH buffer solution (pH 12.0). The mixture was allowed to stand still after stirring. Absorption of the octanol layer and the aqueous layer was measured, and the lipophilic properties of the two complexes were compared.

[2] = Stability of 99mTc complex in an aqueous solution (radiochemical purity over time); format: physicochemical; settings: for radiochemical purity: after purification by RP-HPLC, after 24 hours
Method: 5. Stability of ^99mTc Complex in an Aqueous Solution
In order to compare the stability of ^99mTc-HMPAO and ^99mTc-MRP20 in an aqueous solution, ^99mTc-HMPAO solution was diluted with 50 mM ammonia buffer solution (pH 9.4) into the final ligand concentration of 1 mM. The mixture was incubated in a water bath of 25° C. or 37° C., and radiochemical purity was determined by the above-mentioned analyzing methods after predetermined time (0.5, 2, 4, 8, or 24 hours). ^99mTc-MRP20 aqueous solution was diluted with 50 mM phosphate buffer solution (pH 8.3), and the similar operations were effected.
For the purpose of examining the effect of free ligands on the stability, ^99mTc complex solution was purified by RP-HPLC, and the purified ^99mTc complex solution eluted in 100% acetonitrile was mixed and diluted in the ratio of 1:1 with a buffer solution, and changes over time of the radiochemical purity of the complex was examined similarly as for the complex before purification.

- Absorbance transferred to the octanol layer ([1]; octanol / buffer (pH 7.0 or pH 12.0)): below the detection limit
Compound: C/C(=N\O)C(C)NCC(C)(C)CNC(C)/C(C)=N/O (centres unmarked) [HMPAO, hexamethyl propyleneamine oxime, reference compound]

- radiochemical purity ([2]; 25° C.): 59%
- radiochemical purity remaining (decomposed to) ([2]; unpurified complex, 30 minutes after complex formation): about 40%
Compound: C/C(=N\[O-])[C@@H](C)[N-]CC(C)(C)C[N-][C@H](C)/C(C)=N/O.[O]=[99Tc+3] [^99mTc-HMPAO, ^99mTc-hexamethyl propyleneamine oxime, reference compound]

- ratio of absorbances in the octanol layer and the water layer ([1]; pH of the buffer 7.0): 2.1±0.7
- ratio of absorbances in the octanol layer and the water layer ([1]; pH of the buffer 12.0): 5.0±1.6
Compound: CC(=O)C=C(C)NCCNCc1ccc[nH]1 [MRP20, N-[2-(1H-pyrrolylmethyl)]-N′-(4-penten-3-one-2)-ethane-1,2-diamine]

- radiochemical purity ([2]; 25° C.): 6%
- radiochemical purity remaining (decomposed to) ([2]; unpurified complex, 25° C., 4 hours after complex formation): about 40%
- radiochemical purity retained ([2]; unpurified complex, 2 hours after complex formation): about 70%
Compound: ^99mTc-N-[2-(1H-pyrrolylmethyl)]-N′-(4-penten-3-on-2)-ethane-1,2-diamine [^99mTc-MRP20]
